Source: patent US7026475B2, “Positive allosteric AMPA receptor modulators (PAARM), processes for preparing them, and their use as pharmaceutical compositions” (Boehringer Ingelheim Pharma GmbH & Co. KG, priority 2001, dated 2006)

Tested on: AMPA receptors
Assay: Electrophysiological measurement of intensification of the agonist-induced current on cells expressing functional AMPA receptors
Type: cell-based
Parameters: key: + good; + + very good
Details: positive allosteric influence on agonist-induced current; tested at concentrations between 0.3 μmol and 300 μmol
Procedure: The effect of the compounds according to the invention as AMPA receptor modulators was measured electrophysiologically on cells which express functional AMPA receptors. Investigations were carried out to see whether the test substances have a positive allosteric influence on the agonist-induced current.
The test was carried out at concentrations of between 0.3 μmol and 300 μmol.

## CC1Nc2cccc3cccc(c23)S1(=O)=O (centres unmarked) [Example 1, 2-methyl-2,3-dihydronaphtho[1,8-de][1,3]thiazine-1,1-dioxide]
  Intensification of the Agonist-Induced Current, Activity: +

## CC1Nc2ccc(Cl)c3cccc(c23)S1(=O)=O (centres unmarked) [Example 2, 6-chloro-2-methyl-2,3-dihydronaphtho[1,8-de][1,3]thiazine-1,1-dioxide]
  Intensification of the Agonist-Induced Current, Activity: + +
